# In US10100079B2, “Progesterone-cationic lipid hybrid as anticancer agent and the process of synthesis thereof” (Council of Scientific & Industrial Research, priority 2016, dated 2018):
# Like-named read-outs stand apart in the source and are kept apart here.
# Experiments:
# [1] = system: MCF7; experiment: MTT cytotoxicity assay, MCF7; type: cell-based; settings: Homo sapiens, read-out: IC50 MCF7
# Protocol: (§1) All cells were grown into mycoplasma free condition. […] All cells were grown up to 75-85% confluency after which cells were trypsinized, counted and seeded, in 96-well plates for cell viability studies, 6-well plates for apoptosis studies, 60 mm dish for cell cycle studies and in 25 cm^2 or 75 cm^2 tissue culture flasks for Western blot studies. The primary stock of the cationic progesterone molecules were made in cell culture grade DMSO and from that secondary stock was prepared by serial dilution with cell culture grade DMSO. The final working concentrations were prepared by diluting the secondary stock in cell culture media keeping the DMSO concentration in working solution below 0.2% with respect to cell culture medium. […] For this assay, 12-18 h before treatment cells were plated in 96-well plate at 5000 cells/well density. […] After completion of the treatment, 10 μL of MTT solution (5 mg/mL) was added in each well and incubated for 4 h. Then the media was removed carefully, and the reduced MTT was dissolved in 1:1 (v/v) DMSO/Methanol and absorbance was measured using multimode reader (Synergy H1, BioTek). Results were represented as percentage of viability={[A550(treated cells)−background]/[A550(untreated cells)−background]}×100. The result was summarized and provided as IC50 table in Table 1.
# [2] = system: OVCAR-3; experiment: MTT cytotoxicity assay, OVCAR-3; type: cell-based; settings: Homo sapiens, read-out: IC50 OVCAR-3
# Protocol: as §1
# [3] = system: MDA-MB-231 (PgR-negative); experiment: Cell cycle assay by flow cytometry (PI), MDA-MB-231; type: cell-based, human; settings: MDA-MB-231, 10 μM, 24 h
# Protocol: To measure the cellular DNA content, cell cycle assay was carried out. In this assay, first cells were synchronized at early S-phase by double thymidine blocking. When cell confluency was reached around 25-30% in 60 mm dish, cells were treated with 2 mM thymidine, diluted in 10% FBS containing DMEM, for 18 h to block cells at early S-phase. To release the blocking, media was discarded and washed with 1×PBS. Then the cells were incubated with fresh cell culture media containing 10% FBS for 9 h. After releasing, second blocking was done with 2 mM thymidine containing media for 17 h. After second blocking cells were released by discarding the thymidine supplemented media and kept in fresh media. All the respective treatments for cell cycle study were done after 2 h of second release.
# S-phase synchronized cells were either kept untreated or treated with compound 1 (10 μM) and 6c (10 μM) for 24 h. Cells from different treatment groups were harvested, washed with 1×PBS, and fixed with 70% ethanol and kept at −20° C. for overnight. Then the ethanol was removed and washed with 1×PBS. […] After incubation cells were collected by centrifugation, washed with 1×PBS, re-suspended in 500 μL 1×PBS, and data was recorded using flow cytometer (FACS Canto II, Becton-Dickinson, San Jose, Calif., USA) and data were analyzed with FACS Diva software. […]
# [4] = system: HUVEC; experiment: Viability study in HUVEC cell (FIG. 7A); type: cell-based, Human; settings: 48 h
# Protocol: 2 μM Doxorubicin (DOX) was taken as positive control. + indicates p<0.01.
# T47D, MCF-7, MDA-MB-231 (human breast carcinoma), OVCAR-3 (Human ovary carcinoma), B16F10 (murine melanoma), HUVEC (Human umbilical vein endothelium) cells were purchased from the American Type Cell Culture (ATCC, USA) and CHO (Chinese hamster ovary), NIH-3T3 (murine embryo fibroblast) and COS-1 (Kidney fibroblast) cells were purchased from National Center for Cell Sciences (Pune, India). All cells were grown into mycoplasma free condition. […] All cells were grown up to 75-85% confluency after which cells were trypsinized, counted and seeded, in 96-well plates for cell viability studies, 6-well plates for apoptosis studies, 60 mm dish for cell cycle studies and in 25 cm^2 or 75 cm^2 tissue culture flasks for Western blot studies.
# Cytotoxicity assay of the different compounds were carried out by using 3-(4,5-dimethylthiazol-2-yl)-2,5-diphenyltetrazolium bromide (MTT). […] Then the media was removed carefully, and the reduced MTT was dissolved in 1:1 (v/v) DMSO/Methanol and absorbance was measured using multimode reader (Synergy H1, BioTek). […]
Structure (SMILES),"IC50 ([1]; MCF7, MTT, 48 h continuous treatment) [µM]","IC50 ([2]; OVCAR-3, MTT, 48 h continuous treatment) [µM]",total cell population in G2/M phase [3] [%],effect on cell growth ([4]; 2.5 μM or even 10 μM),"IC50 ([1]; MCF7, 48 h) [µM]","IC50 ([2]; OVCAR-3, 48 h) [µM]","inhibition at 2.5 µM ([4]; Homo sapiens, 2.5 μM, read-out: inhibition of cell growth) [%]"
"CC(=O)[C@H]1CC[C@H]2[C@@H]3CCC4=CC(=O)CC[C@]4(C)[C@H]3CC[C@]12C [Compound 1, Progesterone]",> 20,> 20,21,little to no effect,,,
"CCCCCCCCCC[N+](C)(CCCCCCCCCC)CCNC(=O)CCC(=O)O[C@@H](C)[C@H]1CCC2C3CCC4=CC(=O)CC[C@]4(C)C3CC[C@@]21C (stereo partly drawn) [Compound 6c, N-decyl-N-(2-(4-((1S)-1-((10R,13S,17S)-10,13-dimethyl-3-oxo-2,3,6,7,8,9,10,11,12,13,14, 15,16,17-tetradecahydro-1H-cyclopenta[a]phenanthren-17-yl)ethoxy)-4-oxobutanamido)ethyl)-N-methyldecan-1-aminium chloride]",,,34,,7.33 ± 0.19,4.48 ± 0.23,50
